Reference: patent publication US20200277246A1, “TREATMENT METHOD, COMPOUNDS, AND METHOD OF INCREASING TRPV2 ACTIVITY” (THE FEINSTEIN INSTITUTE FOR MEDICAL RESEARCH, priority 2015, published 2020)
Values joined by “and” are separate entries in the source; they are usually repeats but may differ in a detail not shown here. Equal values may be shown once.

What was measured:
FLS = FLS invasion, focused library screen (Table 1); type: cell-based; settings: evaluated over 24 hours in vitro
Experimental: The in vitro invasiveness of FLS was assayed in a transwell system using Matrigel-coated inserts (BD Biosciences, Franklin Lakes, N.J.), as previously described (Tolboom et al., “Invasiveness of Fibroblast-Like Synoviocytes is an Individual Patient Characteristic Associated with the Rate of Joint Destruction in Patients with Rheumatoid Arthritis,” Arthritis Rheum. 52 (7):1999-2002 (2005); Laragione et al., “The Arthritis Severity Locus Cia5d is a Novel Genetic Regulator of the Invasive Properties of Synovial Fibroblasts,” Arthritis Rheum. 58 (8):2296-2306 (2008), which are hereby incorporated by reference in their entirety). Briefly, 70-80% confluent cells were harvested by trypsin-EDTA digestion, and re-suspended at 2.0×10^4 cells in 500 μl of serum-free DMEM. Cells were placed in the upper compartment of the Matrigel-coated inserts. Where indicated, O1821, LER13, or vehicle was added to the upper chamber. The lower compartment was filled with complete media and the plates were incubated at 37° C. for 24 hours. After 24 hours the upper surface of the insert was wiped with cotton-swabs to remove non-invading cells and the Matrigel layer. The opposite side of the insert was stained with Crystal Violet (Sigma) and the total number of cells that invaded through Matrigel counted at 100× magnification. Experiments were done in duplicate.

MMP-3 = assay: IL-1β-induced MMP-3 expression (qPCR) in RA FLS; type: cell-based, human; settings: IL-1β 10 ng/ml 48 hours, 10 μM, n=6 RA
Experimental: The qPCR conditions used have been previously described (Laragione et al., “Cia5d Regulates a New Fibroblast-Like Synoviocyte Invasion-Associated Gene Expression Signature,” Arthritis Res. Ther. 10 (4):R92 (2008), which is hereby incorporated by reference in its entirety). Briefly, total RNA (200 ng) from each sample was reverse transcribed using Superscript III (Invitrogen). MMP-2 (forward-[…] (SEQ ID NO: 1); reverse-GGTATCCATCGCCATGCT (SEQ ID NO: 2) and MMP-3 (forward-CCAGGTGTGGAGTTCCTGA (SEQ ID NO: 3); reverse-[…] (SEQ ID NO: 4)) primers were designed based on the Universal ProbeLibrary (Roche, Indianapolis, Ind.). Reactions were prepared with Absolute Blue qPCR Mix (Thermo Fisher, Waltham, Mass.), and run in duplicate on a LightCycler 480 thermocycler (Roche) using Relative Quantitative Software (Roche). Ct (threshold cycle) values were adjusted for GAPDH in each sample (ΔCt). Fold differences were calculated with the 2^−ΔΔCt method (Livak et al., “Analysis of Relative Gene Expression Data Using Real-Time Quantitative PCR and the 2(-Delta Delta C(T)) Method,” Methods 25 (4):402-408 (2001), which is hereby incorporated by reference in its entirety).

[1] = test system: cervix carcinoma cell line; assay: Cancer cell invasion, cervix carcinoma; type: cell-based
glioblastoma cell line = assay: Cancer cell invasion, glioblastoma; type: cell-based
[2] = test system: FLS actin cytoskeleton, lamellipodia and Trpv2 distribution; assay: Immunofluorescence and confocal microscopy of FLS; type: cell-based
Experimental: Immunofluorescence was performed as previously reported (Laragione et al., “mTOR Regulates the Invasive Properties of Synovial Fibroblasts in Rheumatoid Arthritis,” Mol. Med. 16 (9-10):352-358 (2010); Chan et al., “The GTPase Rac Regulates the Proliferation and Invasion of Fibroblast-Like Synoviocytes from Rheumatoid Arthritis Patients,” Mol. Med. 13 (5-6):297-304 (2007), which are hereby incorporated by reference in their entirety). Briefly, FLS were cultured on coverslips to 10-20% confluence, starved overnight and then pre-treated for 30 minutes, 60 minutes or 24 h with either DMSO or O1821, in the presence or absence of IL-1β 10-25 ng/ml or PDGF 50 ng/ml in complete media or in serum-free media. Cells were then fixed with 4% formaldehyde for 15 minutes at room temperature and permeabilized with PBS/Triton X-100 0.1% for 5 minutes. Non-specific binding was blocked with 5% nonfat milk. A rabbit anti-Trpv2 (Santa Cruz Biotechnology) was used as primary antibody, and a Alexa Fluor 488 (green) donkey anti-rabbit IgG (Invitrogen) used as secondary antibody. Alexa Fluor 594 (red) Phalloidin (Invitrogen) was used to stain the actin filament. The stained cells were mounted on a glass slide. A Zeiss Axiovert 200 M fluorescent microscope was used for visualization with the appropriate filters, with Zeiss Axioversion 4.7 software. Immunofluorescence microscopy was used for cell cytoskeleton scoring as previously described (Laragione et al., “CXCL10 and its Receptor CXCR3 Regulate Synovial Fibroblast Invasion in Rheumatoid Arthritis,” Arthritis Rheum. 63 (11):3274-3283 (2011), which is hereby incorporated by reference in its entirety). An Olympus FluoView 300 was used for confocal microscopy with a 600× magnification.

phosphorylated Erk1/2 = assay: FLS levels of phosphorylated Erk1/2; type: cell-based
p65 NFκB = p65 NFκB nuclear location by immunofluorescence in FLS; type: cell-based; settings: 5, 10, 30, and 60 minutes, and 24 hours
Trpv2 = settings: cited from earlier work
Trpv1 = Trpv1 (Homo sapiens, UniProt Q8NER1); settings: cited from earlier work
cannabinoid receptors = settings: cited from earlier work

Trpv1, sequence (Q8NER1 whole entry, species assumed): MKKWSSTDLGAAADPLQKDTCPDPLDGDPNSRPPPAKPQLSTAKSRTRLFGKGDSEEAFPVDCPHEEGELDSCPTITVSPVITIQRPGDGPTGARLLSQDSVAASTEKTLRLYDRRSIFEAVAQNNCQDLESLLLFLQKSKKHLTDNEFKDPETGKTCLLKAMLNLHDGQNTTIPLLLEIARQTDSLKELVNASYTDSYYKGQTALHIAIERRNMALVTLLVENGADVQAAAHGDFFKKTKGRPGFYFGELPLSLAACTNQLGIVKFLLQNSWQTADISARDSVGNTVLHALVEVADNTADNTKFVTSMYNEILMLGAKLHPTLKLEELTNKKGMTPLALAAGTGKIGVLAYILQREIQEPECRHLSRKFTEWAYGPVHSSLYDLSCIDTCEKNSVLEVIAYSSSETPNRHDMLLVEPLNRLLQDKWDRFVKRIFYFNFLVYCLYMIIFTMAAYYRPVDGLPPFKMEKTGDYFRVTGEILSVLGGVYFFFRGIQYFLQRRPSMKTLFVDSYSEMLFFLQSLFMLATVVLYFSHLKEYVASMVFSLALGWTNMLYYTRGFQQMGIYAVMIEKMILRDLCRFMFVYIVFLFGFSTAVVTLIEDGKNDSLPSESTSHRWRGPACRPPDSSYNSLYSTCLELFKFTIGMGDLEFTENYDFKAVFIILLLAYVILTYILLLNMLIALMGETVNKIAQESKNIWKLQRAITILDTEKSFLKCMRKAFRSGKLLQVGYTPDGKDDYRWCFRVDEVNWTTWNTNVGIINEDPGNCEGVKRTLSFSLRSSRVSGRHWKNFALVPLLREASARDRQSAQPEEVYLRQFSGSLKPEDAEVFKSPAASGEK

C#Cc1cc(O)c(C2C=C(C)CCC2C(=C)C)c(O)c1C1C=C(C)CCC1C(=C)C [Compound 13, (1R,2″R,2R,2″S)-6′-ethynyl-5,5″-dimethyl-2,2″-di(prop-1-en-2-yl)-1,1″,2,2″,3,3″,4,4″-octahydro-[1,1′:3′,1″-terphenyl]-2′,4′-diol]
FLS invasion decreased by (FLS): Decreased by 64%

C=C(C)[C@@H]1CCC(C)=C[C@H]1c1c(O)cc(C)cc1O [Compound O1821]
Decrease of IL-1β-induced MMP-3 expression (MMP-3): 92% and 90% | Cell invasion [1]: significantly reduce cell invasion | Cell invasion (glioblastoma cell line): significantly reduce cell invasion | Distribution of Trpv2 in FLS ([2]; 10 μM): did not significantly change | Actin cytoskeleton rearrangements, lamellipodia, cell morphology ([2]; 10 μM, 30 minutes to 24 hours, PDGF or IL-1β): no significant effect | Actin cytoskeleton organization, number and distribution of lamellipodia ([2]; RA FLS, 1 μM, 30 minutes): did not affect | Levels of phosphorylated Erk1/2 (phosphorylated Erk1/2): did not affect | p65 NFκB activation (nuclear location) (p65 NFκB): did not change | Stimulation of Trpv2 (Trpv2): stimulates | Stimulation of Trpv1 (Trpv1): does not stimulate | Stimulation of cannabinoid receptors (cannabinoid receptors): does not stimulate
